We go through 3 compounds from US20220372585A1, “Sensors for Aromatic Compounds and Methods of Making and Using Same” (Washington University, priority 2021, published 2022).

One series concerns the target T1, WT TrpR (Escherichia coli, UniProt P0A881).
T1 construct: trpR (WT); expressed in transfected cells; host or cells: E. coli Nissle 1917 (EcN), genomic trpR knocked out; plasmid pMBA035 (P17-trpR)
The series is described as follows: WT TrpR system, repression of GFP expression. In kind it is cell-based, E. coli. The text has this: Among the various aspects of the present disclosure is the provision of systems and methods for detecting aromatic compounds. An aspect of the present disclosure provides for a method of protein engineering (e.g., a regulator protein) comprising: mutagenizing specific amino acids in and around a ligand-binding site of a protein, wherein the mutagenizing enables changes in ligand-protein binding specificity while maintaining protein-DNA interaction and thus downstream gene expression control; and/or linking ligand-protein binding to output response. An aspect of the present disclosure provides for an engineered molecular sensor. […] In some embodiments, the engineered regulator protein or the ligand-protein binding site or a sequence encoding the engineered regulator protein or the ligand-protein binding site of the engineered regulator protein is at least about 80% identical to a WT regulator protein or a WT regulator ligand-protein binding site; or a sequence encoding the engineered regulator protein or ligand binding site thereof is at least about 80% identical to a sequence encoding the WT regulator protein or the WT regulator ligand-protein binding site; or functional fragment thereof, the engineered regulator protein having ligand binding activity. In some embodiments, the engineered molecular sensor is optionally genomically integrated into a microorganism, optionally selected from a probiotic or is a purified cell-free sensor. In some embodiments, the engineered regulator protein or enzyme is an engineered TrpR, TyrR, TynA, or FeaR protein. […] In some embodiments, the engineered regulator protein is an engineered TrpR and is a tryptophan (Trp)-, 5-hydroxytryptophan (5-HTP)-, or tryptamine (Trpta)-specific sensor. In some embodiments, the engineered regulator protein or enzyme is an engineered TrpR, TyrR, TynA, or FeaR, and/or wherein the engineered TrpR, TyrR, TynA, or FeaR comprises at least one mutation to a ligand-protein binding site having specific amino acid binding activity. […]

Another series deals with T2, TrpR variant OD (Escherichia coli, UniProt P0A881, A80L/G78C/I79C/K72S/T83R).
T2 construct: trpR (OD); expressed in transfected cells; host or cells: E. coli Nissle 1917 (EcN), genomic trpR knocked out; plasmid pMBA103 (P17-trpR(OD))
The series is described as follows: TrpR OD variant with synthetic Ptrp promoter, repression of GFP expression. In kind it is cell-based, E. coli. The text has this:
(§1) Among the various aspects of the present disclosure is the provision of systems and methods for detecting aromatic compounds. An aspect of the present disclosure provides for a method of protein engineering (e.g., a regulator protein) comprising: mutagenizing specific amino acids in and around a ligand-binding site of a protein, wherein the mutagenizing enables changes in ligand-protein binding specificity while maintaining protein-DNA interaction and thus downstream gene expression control; and/or linking ligand-protein binding to output response. An aspect of the present disclosure provides for an engineered molecular sensor. […] In some embodiments, the engineered regulator protein or the ligand-protein binding site or a sequence encoding the engineered regulator protein or the ligand-protein binding site of the engineered regulator protein is at least about 80% identical to a WT regulator protein or a WT regulator ligand-protein binding site; or a sequence encoding the engineered regulator protein or ligand binding site thereof is at least about 80% identical to a sequence encoding the WT regulator protein or the WT regulator ligand-protein binding site; or functional fragment thereof, the engineered regulator protein having ligand binding activity. […]

A further series has as its target T3, TrpR variant O1 (Escherichia coli, UniProt P0A881, A80R/G78N/I79W/K72S/T83K).
T3 construct: trpR (O1); expressed in transfected cells; host or cells: E. coli Nissle 1917 (EcN), genomic trpR knocked out; plasmid pMBA173 (P17-trpR(O1))
The series is described as follows: TrpR O1 variant with synthetic Ptrp promoter, repression of GFP expression. In kind it is cell-based, E. coli.
Text: as §1

The test system of the next series is TynA-FeaR system. Kind of series: microbe, parasite or virus in culture. The settings on record: for EC50: Escherichia coli, read-out: KA (half maximal constant). The procedure: To develop sensors for aromatic amines, the TynA-FeaR system was first characterized in EcN. A sensor plasmid was constructed, which consisted of constitutively expressed TynA and FeaR from E. coli MG1655, and a reporter plasmid, which consisted of GFP under the control of PtynA (see e.g., FIG. 3B). […] Next, the sensitivity and selectivity to different ligands was characterized.
For fluorescence-based quantification, single colonies were transferred to 5 mL LB medium (VWR, Radnor, Pa., USA) in 14 mL round bottom tubes and incubated overnight at 250 rpm and 37° C. Unless otherwise specified, experimental cultures were prepared by diluting overnight cultures 100× into 0.6 mL M9 minimal medium supplemented with 1 mM MgSO4, […]), and 2% w/v glycerol as well as the respective ligands (DA, PEA, Tyra, and Trypta) in 2 mL 96-deep well plates. Cultures were grown for 24 h at 37° C. and 250 rpm. After 5 h and 24 h of incubation, samples were obtained from the cultures for flow cytometry analysis.
Flow cytometry was performed as previously described. Culture samples were collected and diluted to a final OD600 of ˜0.005-0.01 in […] filtered phosphate-buffered saline supplemented with 2 mg/ml kanamycin in 96-well assay microplates (U-bottom, REF-353910 from BD Biosciences, San Jose, Calif., USA). The fluorescence of the samples was measured using a Millipore Guava EasyCyte High Throughput flow cytometer with a 488 nm excitation laser and 512/18 nm emission filter. Cytometry data was gated by forward and side scatter. FlowJo (TreeStar Inc.) was used to obtain the arithmetic mean of the fluorescence distribution. The averages of the arithmetic means were calculated from three biological replicates. The average fluorescence of the non-fluorescent wild-type cell was subtracted from each sample to obtain the final fluorescence (au) values (Equation 2). To obtain the relative fluorescence in FIG. 6A-FIG. 6C, fluorescence values for each variant were normalized to the fluorescence of the wild-type sensor using Equation 3.
The Hill equation (Equations 4 and 5) was used to fit lines to the fluorescence data. The model was fit to the experimentally collected data by minimizing the root mean square error (RMSE; Equation 6).

The subject of series [1] is wild-type TynA with M83Q FeaR. In kind it is cell-based, E. coli MG1655. As to conditions: 24 h, FIG. 28A. As for the experimental part: (§2) Flow cytometry was performed as previously described. […] Cytometry data was gated by forward and side scatter.
The test system of series [2] is G415H TynA with wild-type FeaR. In kind it is cell-based, E. coli MG1655. The settings on record: G415H TynA + wild-type FeaR, pCX008, pCX015. The procedure: as §2
The subject of series [3] is wild-type TynA with A81T FeaR. In kind it is cell-based, E. coli MG1655. As to conditions: wild-type TynA; 1 mM, 24 h; FIG. 21. The procedure:
as §2

Series [4] has as its system G494S TynA with A81T FeaR. The class given is cell-based, E. coli MG1655. The settings on record: G494S*; 5 h; FIG. 17A. As for the experimental part: as §2
Series [5] concerns wild-type TynA with L108T FeaR. The class given is cell-based, E. coli MG1655. As to conditions: 24 h, FIG. 28B. As for the experimental part: as §2
Series [6] deals with G494S TynA with wild-type FeaR. The class given is cell-based, E. coli MG1655. The settings on record: G494S TynA, wild-type FeaR; 5 h and 24 h; FIG. 18A-B. The procedure:
as §2

Series [7] concerns wild-type TynA with W110S FeaR. In kind it is cell-based, E. coli MG1655. As to conditions: 24 h, FIG. 28C. The procedure:
as §2

For series [8], the system named is wild-type TynA with W110C FeaR. The class given is cell-based, E. coli MG1655. The settings on record: 24 h, FIG. 28D. The procedure: as §2
Another series has as its system G494S TynA and A81S FeaR. The class given is cell-based, E. coli MG1655. As to conditions: G494S TynA and A81S FeaR; 5 h and 24 h; FIG. 23A-B. The procedure:
as §2

The conditions of series [9]: Sauerkraut, safe limit; cited from earlier work.
The test system of series [10] is TynA-KP with FeaR-KA I109N. Kind of series: GFP fluorescence from PtynA-MG with TynA-KP and FeaR-KA I109N. The class given is cell-based, Klebsiella aerogenes. The text has this:
FIG. 32. […] Sensor system with PtynA-MG, TynA-KP and FeaR-KA was chosen as the wild type (WT) for further directed evolution. TynA-KP was employed to reduce the possible interference from DA during evolution processes. Values and error bars are the average and standard deviation of biological triplicate, respectively.
FIG. 33A-FIG. 33B. […] The expression of PtynA-MG was regulated by the TynA-KP with FeaR-KA I109N mutant. Points represent experimental data while lines represent the fitted curves. […] Values and error bars are the average and standard deviation of biological triplicate, respectively.

Series [11] has as its system wild-type TynA and A81L FeaR. Kind of series: microbe, parasite or virus in culture. The class given is cell-based, E. coli MG1655. The settings on record: A81L FeaR; 5 h; FIG. 24. As for the experimental part: as §2
Series [12] has as its system wild-type TynA with A81P FeaR. The series is described as follows: microbe, parasite or virus in culture. The class given is cell-based, E. coli MG1655. As to conditions: A81P FeaR; 5 h and 24 h; FIG. 25A-B. The procedure: as §2
For series [13], the system named is wild-type TynA with M83N FeaR. The series is described as follows: PtynA-GFP reporter, wild-type TynA with M83N FeaR (pCX073). The settings on record: pCX008, pCX073, FIG. 6E, 24 h. The class given is cell-based, E. coli MG1655. The procedure: as §2
[14] abbreviates: wild-type TynA and FeaR, pCX008, pHJY022, FIG. 3D, 24 h induction.
[15] abbreviates: wild-type TynA and FeaR, pCX008, pHJY022, FIG. 14, 5 h induction.
The mark [16] stands for this setting: wild-type TynA + M83Q FeaR, pCX008, pCX083.
The mark [17] stands for this setting: wild-type TynA + L108T FeaR, pCX008, pCX099.
[18] abbreviates: wild-type TynA + W110S FeaR, pCX008, pCX116.
The mark [19] stands for this setting: wild-type TynA + W110C FeaR, pCX008, pCX117.

Read-outs that look alike come from different tables or passages of the source.

On to `N[C@@H](Cc1c[nH]c2ccc(O)cc12)C(=O)O` [5-HTP, 5-hydroxytryptophan], for which the “fold repression of GFP expression” value at WT TrpR came to 20 fold. The figures for the fold repression result on TrpR variant OD and on TrpR variant O1 were “about 7 fold” and “about 15 fold”, respectively.
As to `N[C@@H](Cc1c[nH]c2ccccc12)C(=O)O` [Trp, tryptophan], the “fold repression of GFP expression” value at WT TrpR is 120 fold. Besides, the fold repression result on TrpR variant OD is on record as “about 5 fold”; on TrpR variant O1, “about 60 fold”.
Regarding `NCCc1ccc(O)cc1` [Tyramine, tyramine], the values for the EC50 in the series on TynA-FeaR system (5 h) and with TynA-FeaR system (24 h) were 37 µM and 77 µM, respectively. The Fmin in the series on TynA-FeaR system (setting [14]) was 4.4; in the series with TynA-FeaR system (setting [15]), 10.6; in series [1] (setting [16]), 0.4; in series [2] (FIG. 4D, 24 h), 0; in series [2] (FIG. 17B, 5 h), 0; in series [5] (setting [17]), 1.8. Further, the Fmin in series [7] (setting [18]) stood at 1.5; in [8] (setting [19]), 0.9; in series [13], 1.5. In addition, the “n (Hill coefficient)” value in the series on TynA-FeaR system (setting [14]) turned out to be 5; in the series on TynA-FeaR system (setting [15]) it was 1.6; in series [1] (setting [16]), 8.4; in [2] (FIG. 4D, 24 h), 0.9; in [2] (FIG. 17B, 5 h), 0.8; in series [5] (setting [17]) it was 1.6. Further, the “n (Hill coefficient)” value is given as 9.8 in [7] (setting [18]), 9.7 in series [8] (setting [19]) and 12 in [13]. In addition, the Fmax worked out at 311 in the series with TynA-FeaR system (setting [15]); 55 in series [1] (setting [16]); 226 in series [2] (FIG. 4D, 24 h); 152 in series [2] (FIG. 17B, 5 h); 78 in series [5] (setting [17]); 127 in series [7] (setting [18]). The Fmax is recorded as 148 in series [8] (setting [19]) and 158 in series [13]. The response result in [1] (M83Q FeaR), in series [4], in series [5] (L108T FeaR), in [6], in [7] (W110S FeaR) and in [8] (W110C FeaR) was “lack of response” each time. In addition, the response entry with G494S TynA and A81S FeaR is reported as “lack of response”; in [10] (FeaR-KA I109N, 5 h and 24 h, FIG. 33A-B), “lack of response”; in series [11], “lack of response”; in [12], “lack of response”. Besides, the “effect of the A81T FeaR mutation on the response of the sensor” value in [3] is “insignificant impact”. For the same compound, in series [9], the Concentration was 120 µM. In series [10] (I109N variant, 0.5 mM, 24 h, FIG. 32), the induction of fluorescence entry is “not”.
